ChEMBL document CHEMBL4402509, “Betulinic acid induces apoptosis and inhibits metastasis of human colorectal cancer cells in vitro and in vivo” (Bioorg Med Chem, 2019)
Activity calls are given as the source filed them. The calls are words filed in the database; no cut-off is given here.

Key:
[1] = system: HCT-116; assay: Inhibition of colony formation of human HCT116 cells assessed as reduction in clonogenic ability at 5 to 20 ug/ml incubated for 10 to 14 days by crystal violet staining based assay; format: functional, cell-based
[2] = system: SW480; assay: Inhibition of colony formation of human SW480 cells assessed as reduction in clonogenic ability at 5 to 20 ug/ml incubated for 10 to 14 days by crystal violet staining based assay; format: functional, cell-based
[3] = system: DLD-1; assay: Inhibition of colony formation of human DLD1 cells assessed as reduction in clonogenic ability at 5 to 20 ug/ml incubated for 10 to 14 days by crystal violet staining based assay; format: functional, cell-based
[4] = system: HCT-116; assay: Induction of apoptosis in human HCT116 cells incubated for 48 hrs by annexin-V/PI staining based flow cyclometry; format: functional, cell-based
[5] = system: HCT-116; assay: Induction of apoptosis in human HCT116 cells assessed as reduction in Bcl2 protein expression incubated for 48 hrs by Western blot analysis; format: functional, cell-based
[6] = system: HCT-116; assay: Induction of apoptosis in human HCT116 cells assessed as increase in Bax protein expression incubated for 48 hrs by Western blot analysis; format: functional, cell-based
[7] = system: HCT-116; assay: Induction of apoptosis in human HCT116 cells assessed as increase in cleaved capse-3 protein level incubated for 48 hrs by Western blot analysis; format: functional, cell-based
[8] = system: HCT-116; assay: Induction of mitochondrial membrane potential loss in human HCT116 cells at 5 to 20 ug/ml incubated for 48 hrs by RH123.dye based FCM analysis; format: functional, cell-based
[9] = system: HCT-116; assay: Induction of ROS generation in human HCT116 cells at 5 to 20 ug/ml incubated for 48 hrs by DCFH-DA staining based FCM analysis; format: functional, cell-based
[10] = system: DLD-1; assay: Inhibition of cell migration in human DLD1 cells at 5 to 20 ug/ml incubated for 48 hrs by Transwell migration assay; format: functional, cell-based
[11] = system: DLD-1; assay: Inhibition of cell invasion in human DLD1 cells at 5 to 20 ug/ml incubated for 48 hrs by crystal violet staining based inverted microscopy; format: functional
[12] = system: DLD-1; assay: Inhibition of cell motility associated protein expression in human DLD1 cells assessed as effect on MMP2 expression at 5 to 20 ug/ml incubated for 48 hrs by Western blot analysis; format: functional, cell-based
[13] = system: DLD-1; assay: Inhibition of cell motility associated protein expression in human DLD1 cells assessed as effect on MMP9 expression at 5 to 20 ug/ml incubated for 48 hrs by Western blot analysis; format: functional, cell-based
[14] = system: DLD-1; assay: Inhibition of cell motility associated protein expression in human DLD1 cells assessed as effect on TIMP2 expression at 5 to 20 ug/ml incubated for 48 hrs by Western blot analysis; format: functional, cell-based
[15] = system: HCT-116; assay: Induction of apoptosis in human HCT116 cells assessed as viable cell level at 5 ug/ml incubated for 48 hrs by annexin-V/PI staining based flow cyclometry (reference value: 81.8%); format: functional
[16] = system: HCT-116; assay: Induction of apoptosis in human HCT116 cells assessed as early apoptotic cell level at 5 ug/ml incubated for 48 hrs by annexin-V/PI staining based flow cyclometry (reference value: 1.84%); format: functional
[17] = system: HCT-116; assay: Induction of apoptosis in human HCT116 cells assessed as late apoptotic cell level at 5 ug/ml incubated for 48 hrs by annexin-V/PI staining based flow cyclometry (reference value: 5.11%); format: functional
[18] = system: HCT-116; assay: Induction of apoptosis in human HCT116 cells assessed as necrotic cell level at 5 ug/ml incubated for 48 hrs by annexin-V/PI staining based flow cyclometry (reference value: 4.9%); format: functional
[19] = system: HCT-116; assay: Induction of apoptosis in human HCT116 cells assessed as viable cell level at 10 ug/ml incubated for 48 hrs by annexin-V/PI staining based flow cyclometry (reference value: 81.8%); format: functional
[20] = system: HCT-116; assay: Induction of apoptosis in human HCT116 cells assessed as early apoptotic cell level at 10 ug/ml incubated for 48 hrs by annexin-V/PI staining based flow cyclometry (reference value: 1.84%); format: functional
[21] = system: HCT-116; assay: Induction of apoptosis in human HCT116 cells assessed as late apoptotic cell level at 10 ug/ml incubated for 48 hrs by annexin-V/PI staining based flow cyclometry (reference value: 5.11%); format: functional
[22] = system: HCT-116; assay: Induction of apoptosis in human HCT116 cells assessed as necrotic cell level at 10 ug/ml incubated for 48 hrs by annexin-V/PI staining based flow cyclometry (reference value: 4.9%); format: functional
[23] = system: HCT-116; assay: Induction of apoptosis in human HCT116 cells assessed as viable cell level at 20 ug/ml incubated for 48 hrs by annexin-V/PI staining based flow cyclometry (reference value: 81.8%); format: functional
[24] = system: HCT-116; assay: Induction of apoptosis in human HCT116 cells assessed as early apoptotic cell level at 20 ug/ml incubated for 48 hrs by annexin-V/PI staining based flow cyclometry (reference value: 1.84%); format: functional
[25] = system: HCT-116; assay: Induction of apoptosis in human HCT116 cells assessed as late apoptotic cell level at 20 ug/ml incubated for 48 hrs by annexin-V/PI staining based flow cyclometry (reference value: 5.11%); format: functional
[26] = system: HCT-116; assay: Induction of apoptosis in human HCT116 cells assessed as necrotic cell level at 20 ug/ml incubated for 48 hrs by annexin-V/PI staining based flow cyclometry (reference value: 4.9%); format: functional
[27] = Toxicity in BALB/c mouse xenografted with human HCT116 cells assessed as effect on body weight at 10 to 20 mg/kg, ip dosed daily for 21 days starting from 1 day post implantation and measured every three days; format: organism-based; conditions: in vivo
[28] = system: HCT-116; assay: Antitumor activity against human HCT116 cells xenografted in BALB/c mouse assessed as inhibition of tumor growth at 10 to 20 mg/kg, ip dosed daily for 21 days starting from 1 day post implantation and measured every three days; format: functional, organism-based
[29] = system: HCT-116; assay: Antitumor activity against human HCT116 cells xenografted in BALB/c mouse assessed as reduction in Ki-67 positive cells in tumor at 10 to 20 mg/kg, ip dosed daily for 21 days starting from 1 day post implantation and measured every three days by immunohistochemistry analysis; format: functional, organism-based
[30] = system: HCT-116; assay: Antitumor activity against human HCT116 cells xenografted in BALB/c mouse assessed as reduction in MMP2 positive cells in tumor at 10 to 20 mg/kg, ip dosed daily for 21 days starting from 1 day post implantation and measured every three days by immunohistochemistry analysis; format: functional, organism-based
[31] = Toxicity in BALB/c mouse xenografted with human HCT116 cells assessed as induction of alterations in heart at 10 to 20 mg/kg, ip dosed daily for 21 days starting from 1 day post implantation and measured every three days by hematoxylin and eosin staining based histopathological analysis; format: organism-based; conditions: in vivo
[32] = Toxicity in BALB/c mouse xenografted with human HCT116 cells assessed as induction of alterations in liver at 10 to 20 mg/kg, ip dosed daily for 21 days starting from 1 day post implantation and measured every three days by hematoxylin and eosin staining based histopathological analysis; format: organism-based; conditions: in vivo
[33] = Toxicity in BALB/c mouse xenografted with human HCT116 cells assessed as induction of alterations in spleen at 10 to 20 mg/kg, ip dosed daily for 21 days starting from 1 day post implantation and measured every three days by hematoxylin and eosin staining based histopathological analysis; format: organism-based; conditions: in vivo
[34] = Toxicity in BALB/c mouse xenografted with human HCT116 cells assessed as induction of alterations in lung at 10 to 20 mg/kg, ip dosed daily for 21 days starting from 1 day post implantation and measured every three days by hematoxylin and eosin staining based histopathological analysis; format: organism-based; conditions: in vivo
[35] = Toxicity in BALB/c mouse xenografted with human HCT116 cells assessed as induction of alterations in kidney at 10 to 20 mg/kg, ip dosed daily for 21 days starting from 1 day post implantation and measured every three days by hematoxylin and eosin staining based histopathological analysis; format: organism-based; conditions: in vivo
[36] = system: HCT-116; assay: Induction of mitochondrial membrane potential loss in human HCT116 cells at 5 ug/ml incubated for 48 hrs by RH123.dye based FCM analysis (reference value: 6.37%); format: functional
[37] = system: HCT-116; assay: Induction of mitochondrial membrane potential loss in human HCT116 cells at 10 ug/ml incubated for 48 hrs by RH123.dye based FCM analysis (reference value: 6.37%); format: functional
[38] = system: HCT-116; assay: Induction of mitochondrial membrane potential loss in human HCT116 cells at 20 ug/ml incubated for 48 hrs by RH123.dye based FCM analysis (reference value: 6.37%); format: functional
[39] = system: HCT-116; assay: Induction of ROS generation in human HCT116 cells at 5 ug/ml incubated for 48 hrs by DCFH-DA staining based FCM analysis (reference value: 4.44%); format: functional
[40] = system: HCT-116; assay: Induction of ROS generation in human HCT116 cells at 10 ug/ml incubated for 48 hrs by DCFH-DA staining based FCM analysis (reference value: 4.44%); format: functional
[41] = system: HCT-116; assay: Induction of ROS generation in human HCT116 cells at 20 ug/ml incubated for 48 hrs by DCFH-DA staining based FCM analysis (reference value: 4.44%); format: functional

Compound: C=C(C)[C@@H]1CC[C@]2(C(=O)O)CC[C@]3(C)[C@H](CC[C@@H]4[C@@]5(C)CC[C@H](O)C(C)(C)[C@@H]5CC[C@]43C)[C@@H]12 [BETULINIC ACID]
- inhibition [1]: Active
- inhibition [2]: Active
- inhibition [3]: Active
- Activity [4]: Dose-dependent effect
- Activity [5]: Dose-dependent effect
- Activity [6]: Dose-dependent effect
- Activity [7]: Dose-dependent effect
- Activity [8]: Active
- Activity [9]: Dose-dependent effect
- Activity [10]: Active
- Activity [11]: Active
- inhibition [12]: Active
- inhibition [13]: Active
- inhibition [14]: Active
- Activity [15]: 79%
- Activity [16]: 1.63%
- Activity [17]: 11.5%
- Activity [18]: 7.94%
- Activity [19]: 73.8%
- Activity [20]: 2.33%
- Activity [21]: 13%
- Activity [22]: 10.9%
- Activity [23]: 53.5%
- Activity [24]: 6.72%
- Activity [25]: 25.2%
- Activity [26]: 14.5%
- Activity [27]: Non-Toxic
- TGI [28]: Active
- inhibition [29]: Active
- inhibition [30]: Active
- Activity [31]: Non-Toxic
- Activity [32]: Non-Toxic
- Activity [33]: Non-Toxic
- Activity [34]: Non-Toxic
- Activity [35]: Non-Toxic
- Activity [36]: 17.2%
- Activity [37]: 19.5%
- Activity [38]: 21.3%
- Activity [39]: 9.58%
- Activity [40]: 13.6%
- Activity [41]: 18.9%
